These results are taken from US20020165286A1, “Dermal anti-inflammatory composition” (priority 2000, published 2002).

The conditions of data set [1]: cited from earlier work.
The conditions of data set [2]: cited from earlier work. The source holds these as a separate data set.
For data set [3] the following is noted: cited from earlier work. The source holds these as a separate data set.
For data set [4] the following is noted: cited from earlier work. This is another data set of the same source.
For data set [5] the following is noted: cited from earlier work. The source holds these as a separate data set.
Data set [6] has as its system rhino mouse. Description: Rhino mouse study: comedolytic activity (number of utriculi, epidermal thickness). The settings on record: test substance dissolved in ethanol only. The data set is classed as in vivo, rhino mice (RHJ/LeJ Rhino, hr^rh/hr^rh). The source says: The rhino mouse is an in vivo model for the study of hyperplastic and comedolytic potency of various drugs used in the treatment of acne. The rhino mouse has follicles on the skin. The orifices are distended with horny material and these structures resembles human microcomedones and are referred to as utriculi or pseudocomedones.
In the present study, the comedolytic activity and skin irritation potential of 3% w/v solutions of test substance (1) in different vehicles was studied in order to select a formulation suited for topical application. Selected commercial acne products were included in the study for the purpose of comparison.
105 female rhino mice (RHJ/LeJ Rhino, hr^rh/hr^rh) aged 6-9 weeks were obtained from M&B A/S, Denmark. The mice were placed in cages with free access to a commercial rodent diet (Altromin 1324) and tap water. […]
The mice were killed one day after the end of the treatment period and the dorsal skin was removed. […] These slices were evaluated under the microscope (Nikon LABOPHOT-2) for the number of epidermal utriculi and utriculi profile (×200) and the epidermal thickness (×400), and the mean value and standard deviation for each animal was estimated. […]

SMILES strings stand for the structures. Where two headings read alike, the source gives them in different places.

Take `CC1=C(/C=C/C(C)=C/C=C/C(C)=C/C(=O)O)C(C)(C)CCC1` [Tretinoin]: the Potential irritant result in data set [1] (topical administration) was “Yes”. Moreover, the Antibacterial entry in data set [2] (topical administration) is “No”. Also, in data set [3] (topical administration), the Anti-inflam. entry is recorded as “No”. In data set [4] (topical administration), the Comedolytic entry was “Yes”. For the same molecule, the Teratogenic entry in data set [5] (topical administration) is “Maybe”.
Regarding `O=C(O)CCCCCCCC(=O)O` [Azelaic acid], the Potential irritant result in data set [1] (topical administration) is given as “Yes”. Besides, the Antibacterial result in data set [2] (topical administration) is reported as “Yes”. In addition, the Anti-inflam. result in data set [3] (topical administration) is on record as “Maybe”. The Comedolytic entry in data set [4] (topical administration) is “Yes”. Further, the Teratogenic result in data set [5] (topical administration) is “No”.
Regarding `CN(C)c1ccc(O)c2c1C[C@H]1C[C@H]3[C@H](N(C)C)C(O)=C(C(N)=O)C(=O)[C@@]3(O)C(O)=C1C2=O` [Minocyclin], the Antibacterial entry in data set [2] (systemic administration) is “Yes”. In data set [3] (systemic administration), the Anti-inflam. entry is recorded as “Yes”. In addition, in data set [4] (systemic administration), the Comedolytic result is recorded as “No”. Besides, the Teratogenic entry in data set [5] (systemic administration) is listed as “Yes”.
Turning to `CC1=C(/C=C/C(C)=C/C=C/C(C)=C\C(=O)O)C(C)(C)CCC1` [Isotretinoin], the Potential irritant result in data set [1] (systemic administration) is on record as “Yes”. The Antibacterial result in data set [2] (systemic administration) was “Yes”. In data set [3] (systemic administration), the Anti-inflam. entry is reported as “Yes”. For the same molecule, the Comedolytic entry in data set [4] (systemic administration) is recorded as “Yes”. For the same molecule, the Teratogenic result in data set [5] (systemic administration) is recorded as “Yes”.
As to `C[C@H]1c2cccc(O)c2C(O)=C2C(=O)[C@]3(O)C(O)=C(C(N)=O)C(=O)[C@@H](N(C)C)[C@@H]3[C@@H](O)[C@@H]21` [Doxycyclin], the Potential irritant entry in data set [1] (systemic administration) is given as “No”. For the same molecule, the Antibacterial result in data set [2] (systemic administration) is “Yes”. In data set [3] (systemic administration), the Anti-inflam. result is “Yes”. Moreover, the Comedolytic entry in data set [4] (systemic administration) was “No”. Also, the Teratogenic entry in data set [5] (systemic administration) was “Yes”.
As to `O=C(OOC(=O)c1ccccc1)c1ccccc1` [Benzoyl peroxide], the Potential irritant result in data set [1] (topical administration) is “Yes”. For the same molecule, in data set [2] (topical administration), the Antibacterial entry is reported as “Yes”. Also, the Anti-inflam. result in data set [3] (topical administration) was “Maybe”. Further, the Comedolytic result in data set [4] (topical administration) is “Somewhat”.
In the case of `CN(C)[C@@H]1C(=O)C(C(N)=O)=C(O)[C@@]2(O)C(=O)C3=C(O)c4c(O)cccc4[C@@](C)(O)[C@H]3C[C@@H]12` [Tetracyclin], in data set [1] (systemic administration), the Potential irritant result is reported as “No”. Moreover, the Antibacterial entry in data set [2] (systemic administration) is recorded as “Yes”. Also, in data set [3] (systemic administration), the Anti-inflam. entry is on record as “Yes”. Also, in data set [4] (systemic administration), the Comedolytic entry is on record as “No”. Moreover, the Teratogenic entry in data set [5] (systemic administration) was “Yes”.
In the case of `Cc1cc(F)ccc1Nc1ccc(C(=O)c2ccccc2C)c(Cl)c1` [test substance (1), 2-chloro-4-(4-fluoro-2-methyl-phenylamino)-2′-methylbenzophenone], the “reduction in the number of utriculi” value in data set [6] was found to be 51%.
